The structures appear in SMILES notation. Starred links: 1 amine or outer side, 2 acyl side, 3 side chain; linkers in the order of their positions; H or OH if unused. Positions of bridges follow the written chain, without caps; N, C: chain ends. Non-standard residues stand in square brackets, D forms with d. Residues, ends and D or L forms follow the SMILES beside them. *: point of attachment. hPhe(3-Cl-4-CF3) = N[C@@H](CCc1ccc(C(F)(F)F)c(Cl)c1)C(=O)O; hPhe(3-F,4-CF3) = N[C@@H](CCc1ccc(C(F)(F)F)c(F)c1)C(=O)O; X5 = CC(C)(C)NC(=O)COC[C@H](CC(=O)[*:1])N[*:2]; NMePhe(3-F) = CN[C@@H](Cc1cccc(F)c1)C(=O)O; hPhe(3-Cl) = N[C@@H](CCc1cccc(Cl)c1)C(=O)O; hPhe(4-Cl) = N[C@@H](CCc1ccc(Cl)cc1)C(=O)O; NMedβ3hAla = C[C@H](CC(=O)[*:2])N(C)[*:1]; NMeGly(cPent) = CN[C@H](C(=O)O)C1CCCC1; Pro(4,4-F2) = O=C(O)[C@@H]1CC(F)(F)CN1; NMeCha = CN[C@@H](CC1CCCCC1)C(=O)O; NMeChg = CN[C@H](C(=O)O)C1CCCCC1; NMeD = CN[C@@H](CC(=O)O)C(=O)O; NMeL = CN[C@@H](CC(C)C)C(=O)O; NMeV = CN[C@H](C(=O)O)C(C)C; d(β3hA) = C[C@@H](N)CC(=O)O; NMeS = CN[C@@H](CO)C(=O)O; Morpholide = C1CN(*)CCO1; NMeA = CN[C@@H](C)C(=O)O; NMeAib = CNC(C)(C)C(=O)O; Piperidide = C1CCN(*)CC1; Ac5c = NC1(C(=O)O)CCCC1; Aze = O=C(O)[C@@H]1CCN1; Ac4c = NC1(C(=O)O)CCC1; Nleu = CC(C)CNCC(=O)O; X47 = Fc1cncc(C*)c1; Sar = CNCC(=O)O; Propyl = CCC*

Drawing on patent publication US12371454B2, “Cyclic peptide compound having Kras inhibitory action” (priority 2019, dated 2025), this text covers IC50 for 9 compounds.

The target in the assay is T1, Kras and SOS1 (biotin-tagged human Kras loaded with GDP, His-tagged human SOS1) (Homo sapiens, UniProt P01116, G12D).
T1 construct: made in house; host or cells: E. coli (stated for Kras only)
T1 sequence (P01116 1-188 isoform P01116-2 G12D): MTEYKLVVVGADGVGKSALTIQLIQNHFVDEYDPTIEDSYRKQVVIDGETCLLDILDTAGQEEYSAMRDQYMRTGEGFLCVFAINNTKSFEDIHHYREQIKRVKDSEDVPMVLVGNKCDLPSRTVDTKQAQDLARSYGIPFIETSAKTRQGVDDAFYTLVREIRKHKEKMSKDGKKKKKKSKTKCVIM
The experiment in a line: Protein-protein interaction inhibition between Kras and SOS1 (KrasGl2D-SOS PPI) using AlphaScreen. The conditions noted are these: AlphaScreen; biotin-tagged human Kras loaded with GDP, His-tagged human SOS1; read-out: KRAS G12D-SOS PPI IC50. The assay is classed as binding. In outline:
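Donor beads (nickel) hold His-SOS1; acceptor beads (streptavidin) hold biotin-Kras bound to GDP. Signal measured at 520-620 nm following 680 nm excitation.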
Regarding `CC[C@H](C)[C@@H]1NC(=O)[C@H](C)N(C)C(=O)C[C@@H](C(=O)N2CCCCC2)N(C)C(=O)[C@H](C(C)C)N(C)C(=O)C2(CCCC2)NC(=O)[C@H](Cc2cccc(F)c2)N(C)C(=O)[C@H](CCc2ccc(C(F)(F)F)c(Cl)c2)NC(=O)CN(C)C(=O)[C@H](CC2CCCCC2)N(C)C(=O)CN(C)C(=O)CN(C)C1=O` [Compound 945] ([NMeA]I[Sar][Sar][NMeCha][Sar][hPhe(3-Cl-4-CF3)][NMePhe(3-F)][Ac5c][NMeV][NMeD]-Piperidide; lactam N-11), the 50% inhibitory concentration (IC50) amounted to 9.8 nM. In the case of `CC[C@H](C)[C@@H]1NC(=O)[C@H](CC(C)C)N(C)C(=O)C[C@@H](C(=O)N2CCCCC2)N(C)C(=O)[C@H](C2CCCCC2)N(C)C(=O)C2(CCCC2)NC(=O)[C@H](COCc2cncc(F)c2)N(C)C(=O)[C@H](CCc2ccc(C(F)(F)F)c(Cl)c2)NC(=O)CN(C)C(=O)[C@H](CC2CCCCC2)N(C)C(=O)CN(C)C(=O)CN(C)C1=O` [Compound 950] ([NMeL]I[Sar][Sar][NMeCha][Sar][hPhe(3-Cl-4-CF3)][NMeS](X47)[Ac5c][NMeChg][NMeD]-Piperidide; lactam N-11) it was 9 nM; in that of `CC[C@H](C)[C@@H]1NC(=O)[C@H](CC(C)C)N(C)C(=O)C[C@@H](C(=O)N2CCCCC2)N(C)C(=O)[C@H](C(C)C)N(C)C(=O)C2(CCCC2)NC(=O)[C@@H]2CCCN2C(=O)[C@H](CCc2ccc(Cl)cc2)NC(=O)CN(C)C(=O)[C@H](CC2CCCCC2)N(C)C(=O)[C@@H]2CCCN2C(=O)CN(C)C1=O` [Compound 953] ([NMeL]I[Sar]P[NMeCha][Sar][hPhe(4-Cl)]P[Ac5c][NMeV][NMeD]-Piperidide; lactam N-11), 180 nM; in that of `CC[C@H](C)[C@@H]1NC(=O)[C@H](C)N(C)C(=O)C[C@@H](C(=O)N2CCCCC2)N(C)C(=O)[C@H](C2CCCCC2)N(C)C(=O)C2(CCCC2)NC(=O)[C@@H]2CCCN2C(=O)[C@H](CCc2cccc(Cl)c2)NC(=O)CN(C)C(=O)[C@H](CC2CCCCC2)N(C)C(=O)CN(C)C(=O)CN(C)C1=O` [Compound 954] ([NMeA]I[Sar][Sar][NMeCha][Sar][hPhe(3-Cl)]P[Ac5c][NMeChg][NMeD]-Piperidide; lactam N-11), 1.9 nM. `CC[C@H](C)[C@@H]1NC(=O)[C@H](CC(C)C)N(C)C(=O)C[C@@H](COCC(=O)NC(C)(C)C)NC(=O)[C@H](C(C)C)N(C)C(=O)C2(CCCC2)NC(=O)[C@@H]2CCCN2C(=O)[C@H](CCc2ccc(C(F)(F)F)c(Cl)c2)NC(=O)CN(C)C(=O)[C@H](CC2CCCCC2)N(C)C(=O)CN(C)C(=O)CN(C)C1=O` [Compound 955] ([NMeL]I[Sar][Sar][NMeCha][Sar][hPhe(3-Cl-4-CF3)]P[Ac5c][NMeV]; linker N-C via X5): the IC50 turned out to be 26 nM. With `CC[C@H](C)[C@@H]1NC(=O)[C@H](CC(C)C)N(C)C(=O)C[C@@H](C)N(C)C(=O)[C@H](C2CCCC2)N(C)C(=O)C2(CCC2)NC(=O)[C@@H]2CC(F)(F)CN2C(=O)[C@H](CCc2ccc(C(F)(F)F)c(Cl)c2)NC(=O)CN(C)C(=O)[C@H](CC2CCCCC2)N(C)C(=O)CN(C)C(=O)CN(C)C1=O` [Compound 962] (cyclo([Ac4c][NMeGly(cPent)][NMedβ3hAla][NMeL]I[Sar][Sar][NMeCha][Sar][hPhe(3-Cl-4-CF3)][Pro(4,4-F2)])), the IC50 stood at 7.8 nM. In the case of `CC[C@H](C)[C@@H]1NC(=O)[C@H](CC(C)C)N(C)C(=O)C[C@@H](C(=O)N2CCCCC2)N(C)C(=O)[C@H](CC(C)C)NC(=O)C(C)(C)N(C)C(=O)[C@H](CC(C)C)NC(=O)[C@H](CCc2ccc(C(F)(F)F)c(F)c2)NC(=O)CN(C)C(=O)[C@H](CC2CCCCC2)N(C)C(=O)CN(C)C(=O)CN(C)C1=O` [Compound 969] ([NMeL]I[Sar][Sar][NMeCha][Sar][hPhe(3-F,4-CF3)]L[NMeAib]L[NMeD]-Piperidide; lactam N-11) it was 2 nM; in that of `CC[C@H](C)[C@@H]1NC(=O)[C@H](CC(C)C)N(C)C(=O)C[C@@H](C)NC(=O)[C@H](C(C)C)N(C)C(=O)C2(CCCC2)NC(=O)[C@@H]2CCCN2C(=O)[C@H](CCc2ccc(C(F)(F)F)c(Cl)c2)NC(=O)CN(C)C(=O)[C@H](CC2CCCCC2)N(C)C(=O)CN(C)C(=O)CN(CC(C)C)C1=O` [Compound 970] (cyclo([Ac5c][NMeV][d(β3hA)][NMeL]I[Nleu][Sar][NMeCha][Sar][hPhe(3-Cl-4-CF3)]P)), 250 nM; in that of `CCCOC[C@H]1C(=O)N(C)CC(=O)N[C@@H](CCc2ccc(C(F)(F)F)c(Cl)c2)C(=O)N2CCC[C@H]2C(=O)NC2(CCCC2)C(=O)N(C)[C@@H](C2CCCC2)C(=O)N(C)[C@H](C(=O)N2CCOCC2)CC(=O)N(C)[C@@H](CC(C)C)C(=O)N[C@@H]([C@@H](C)CC)C(=O)N(C)[C@@H](C)C(=O)N2CC[C@H]2C(=O)N1C` [Compound 974] ([NMeL]I[NMeA][Aze][NMeS](Propyl)[Sar][hPhe(3-Cl-4-CF3)]P[Ac5c][NMeGly(cPent)][NMeD]-Morpholide; lactam N-11), 0.91 nM.
